Laboratory results as given in patent US20240269139A1, “COMPOUNDS FOR TARGETED PROTEIN DEGRADATION OF KINASES” (DANA-FARBER CANCER INSTITUTE, INC., priority 2020, published 2024).
Read-outs that look alike come from different tables or passages of the source.

How the values were obtained:
Type in all cases: cell-based
[1] = molecular target: T1, protein kinases (human kinome) (Homo sapiens, UniProt Q9UEE5); conditions: STK17A Q9UEE5; experiment wp149
T1 sequence (Q9UEE5 1-414): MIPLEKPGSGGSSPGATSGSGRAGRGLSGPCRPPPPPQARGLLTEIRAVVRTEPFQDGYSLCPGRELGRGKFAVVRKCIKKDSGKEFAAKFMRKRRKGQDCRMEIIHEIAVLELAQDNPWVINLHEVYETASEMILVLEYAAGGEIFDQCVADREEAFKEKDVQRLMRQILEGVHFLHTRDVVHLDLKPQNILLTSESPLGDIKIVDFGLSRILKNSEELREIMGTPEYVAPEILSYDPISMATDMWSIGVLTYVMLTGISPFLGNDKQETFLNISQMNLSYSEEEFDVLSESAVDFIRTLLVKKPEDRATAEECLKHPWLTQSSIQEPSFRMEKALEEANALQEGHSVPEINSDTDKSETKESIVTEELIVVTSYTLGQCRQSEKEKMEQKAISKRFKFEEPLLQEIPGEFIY
Source text: (§1) Although development of targeted protein degraders requires a POI binder, among already-liganded proteins such as kinases, it was hypothesized that different targets would have a different propensity for current approaches to degrader-mediated destruction, which was termed ‘degradability’. […] It was rationalized that the probability of identifying the same kinase as a false positive in multiple treatments is low, therefore this analysis served to also assess the robustness of our data and subsequent interpretations. […] Overall, 62 protein kinases were degraded in more than 10 independent treatments, and remarkably, 9 of these (CDK4, AURKA, FER, WEE1, BLK. LIMK2, CDK6, GAK, LIMK1) were each degraded in at least 40 of the 154 independent treatments, emphasizing their predisposition to induced degradation (FIG. 1G; Appendix I).
(§2) Next, the frequency of degradation assessment was corrected for over-representation of molecules in the full dataset by omitting replicate profiling of compounds under different experimental conditions, to remove any bias. […] Unsurprisingly, the top degradable kinases mirror those from the previous analysis (CDK4, AURKA, FER, WEE1, BLK), confirming that in sufficiently large datasets, even with over-representation of certain molecules, frequency of degradation is a good measure of general tractability.

[2] = molecular target: protein kinases (human kinome) (Homo sapiens, UniProt P51451); conditions: for logFC of BLK (P51451): down
Source text: as §1, §2

[3] = molecular target: protein kinases (human kinome) (Homo sapiens, UniProt P53671); conditions: for logFC of LIMK2: LIMK2 P53671
Source text: as §1, §2

[4] = test system: protein kinases (human kinome); conditions: for logFC MAPK14: experiment wp047
Source text: as §1, §2

[5] = molecular target: protein kinases (human kinome) (Homo sapiens, UniProt P53667); conditions: LIMK1 (P53667-1), experiment wp149
Source text: as §1, §2

[6] = molecular target: protein kinases (human kinome) (Homo sapiens, UniProt Q16539)
Source text: as §1, §2

[7] = molecular target: T2, protein kinases (human kinome) (Homo sapiens, UniProt O14965)
T2 sequence (O14965 1-403): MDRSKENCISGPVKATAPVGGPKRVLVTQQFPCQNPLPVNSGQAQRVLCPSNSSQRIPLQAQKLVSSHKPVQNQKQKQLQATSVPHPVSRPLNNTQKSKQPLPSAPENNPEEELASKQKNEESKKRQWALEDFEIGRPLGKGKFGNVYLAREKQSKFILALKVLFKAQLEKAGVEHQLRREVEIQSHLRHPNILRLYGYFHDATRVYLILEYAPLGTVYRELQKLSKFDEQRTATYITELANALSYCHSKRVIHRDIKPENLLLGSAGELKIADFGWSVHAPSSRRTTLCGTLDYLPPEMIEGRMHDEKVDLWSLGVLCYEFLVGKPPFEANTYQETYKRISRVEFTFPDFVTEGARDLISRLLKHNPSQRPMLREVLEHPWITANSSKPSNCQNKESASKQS
Source text: as §1, §2

[8] = molecular target: T3, protein kinases (human kinome) (Homo sapiens, UniProt Q08881); conditions: experiment wp134
T3 sequence (Q08881 1-620): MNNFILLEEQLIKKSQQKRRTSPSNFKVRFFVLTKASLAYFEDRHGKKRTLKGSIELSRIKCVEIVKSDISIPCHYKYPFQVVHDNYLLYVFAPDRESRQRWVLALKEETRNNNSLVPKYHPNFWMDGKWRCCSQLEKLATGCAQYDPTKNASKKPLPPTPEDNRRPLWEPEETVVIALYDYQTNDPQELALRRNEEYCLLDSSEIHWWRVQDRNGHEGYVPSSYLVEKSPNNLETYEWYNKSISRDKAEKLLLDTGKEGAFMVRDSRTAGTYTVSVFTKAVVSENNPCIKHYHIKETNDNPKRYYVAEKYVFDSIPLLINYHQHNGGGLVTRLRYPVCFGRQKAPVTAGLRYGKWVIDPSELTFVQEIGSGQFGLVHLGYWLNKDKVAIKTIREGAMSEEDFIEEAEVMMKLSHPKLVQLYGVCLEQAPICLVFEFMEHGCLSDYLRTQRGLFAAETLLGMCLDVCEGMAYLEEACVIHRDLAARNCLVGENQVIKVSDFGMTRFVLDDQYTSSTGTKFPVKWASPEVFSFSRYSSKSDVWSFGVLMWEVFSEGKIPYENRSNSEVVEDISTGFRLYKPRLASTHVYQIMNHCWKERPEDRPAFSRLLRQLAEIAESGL
Source text: as §1, §2

[9] = molecular target: protein kinases (human kinome) (Homo sapiens, UniProt P41240); conditions: experiment wp045
Source text: as §1, §2

[10] = molecular target: protein kinases (human kinome) (Homo sapiens, UniProt P30291); conditions: for logFC of WEE1: WEE1 P30291-1
Source text: as §1, §2

[11] = molecular target: protein kinases (human kinome) (Homo sapiens, UniProt P42684)
Source text: as §1, §2

[12] = molecular target: protein kinases (human kinome) (Homo sapiens, UniProt Q2M2I8); conditions: experiment wp134
Source text: as §1, §2

[13] = molecular target: protein kinases (human kinome) (Homo sapiens, UniProt P11802)
Source text: as §1, §2

[14] = molecular target: protein kinases (human kinome) (Homo sapiens, UniProt Q15118); conditions: PDK1 Q15118; experiment wp084
Source text: as §1, §2

[15] = molecular target: protein kinases (human kinome) (Homo sapiens, UniProt Q00534); conditions: for logFC CDK6: CDK6 (Q00534), direction down; for logFC of CDK6 (Q00534): down
Source text: as §1, §2

[16] = AURKB Q96GD4-5, experiment wp080

Chain of protein kinases (human kinome) (Homo sapiens, UniProt Q00534) (Q00534 whole entry): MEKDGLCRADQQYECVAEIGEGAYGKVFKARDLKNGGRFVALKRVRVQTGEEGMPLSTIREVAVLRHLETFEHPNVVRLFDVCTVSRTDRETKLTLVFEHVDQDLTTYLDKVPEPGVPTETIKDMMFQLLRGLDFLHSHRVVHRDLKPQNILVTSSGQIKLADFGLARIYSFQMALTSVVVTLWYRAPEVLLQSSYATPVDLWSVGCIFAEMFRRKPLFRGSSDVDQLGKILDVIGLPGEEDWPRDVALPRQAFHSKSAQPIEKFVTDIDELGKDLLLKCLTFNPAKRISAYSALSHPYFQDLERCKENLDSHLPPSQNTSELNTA
Chain of protein kinases (human kinome) (Homo sapiens, UniProt P53671) (P53671 whole entry): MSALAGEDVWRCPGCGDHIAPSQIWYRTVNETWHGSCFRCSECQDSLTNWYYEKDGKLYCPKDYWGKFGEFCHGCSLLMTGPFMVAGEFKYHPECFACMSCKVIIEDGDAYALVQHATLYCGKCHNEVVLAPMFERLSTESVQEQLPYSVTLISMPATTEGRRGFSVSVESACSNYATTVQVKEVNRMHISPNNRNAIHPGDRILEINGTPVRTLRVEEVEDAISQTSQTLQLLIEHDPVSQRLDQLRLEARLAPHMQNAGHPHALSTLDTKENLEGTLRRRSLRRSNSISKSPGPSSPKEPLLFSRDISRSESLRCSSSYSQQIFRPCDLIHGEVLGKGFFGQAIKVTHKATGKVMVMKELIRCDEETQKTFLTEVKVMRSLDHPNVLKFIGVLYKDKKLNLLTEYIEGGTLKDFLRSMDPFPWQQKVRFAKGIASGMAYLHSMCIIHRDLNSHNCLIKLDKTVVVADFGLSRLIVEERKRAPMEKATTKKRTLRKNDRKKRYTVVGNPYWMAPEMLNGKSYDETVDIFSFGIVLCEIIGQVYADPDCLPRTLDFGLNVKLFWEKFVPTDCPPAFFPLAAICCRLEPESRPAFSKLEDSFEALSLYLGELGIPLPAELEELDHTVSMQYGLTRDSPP
Chain of protein kinases (human kinome) (Homo sapiens, UniProt P11802) (P11802 whole entry): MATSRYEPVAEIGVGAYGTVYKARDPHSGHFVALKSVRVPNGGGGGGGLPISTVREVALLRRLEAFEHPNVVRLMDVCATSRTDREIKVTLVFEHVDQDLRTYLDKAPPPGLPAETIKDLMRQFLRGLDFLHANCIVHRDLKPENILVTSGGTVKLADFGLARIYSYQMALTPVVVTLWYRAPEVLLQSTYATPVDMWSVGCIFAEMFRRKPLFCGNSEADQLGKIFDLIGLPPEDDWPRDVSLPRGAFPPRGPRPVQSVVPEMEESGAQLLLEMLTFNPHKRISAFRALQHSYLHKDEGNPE
Chain of protein kinases (human kinome) (Homo sapiens, UniProt P30291) (P30291 whole entry): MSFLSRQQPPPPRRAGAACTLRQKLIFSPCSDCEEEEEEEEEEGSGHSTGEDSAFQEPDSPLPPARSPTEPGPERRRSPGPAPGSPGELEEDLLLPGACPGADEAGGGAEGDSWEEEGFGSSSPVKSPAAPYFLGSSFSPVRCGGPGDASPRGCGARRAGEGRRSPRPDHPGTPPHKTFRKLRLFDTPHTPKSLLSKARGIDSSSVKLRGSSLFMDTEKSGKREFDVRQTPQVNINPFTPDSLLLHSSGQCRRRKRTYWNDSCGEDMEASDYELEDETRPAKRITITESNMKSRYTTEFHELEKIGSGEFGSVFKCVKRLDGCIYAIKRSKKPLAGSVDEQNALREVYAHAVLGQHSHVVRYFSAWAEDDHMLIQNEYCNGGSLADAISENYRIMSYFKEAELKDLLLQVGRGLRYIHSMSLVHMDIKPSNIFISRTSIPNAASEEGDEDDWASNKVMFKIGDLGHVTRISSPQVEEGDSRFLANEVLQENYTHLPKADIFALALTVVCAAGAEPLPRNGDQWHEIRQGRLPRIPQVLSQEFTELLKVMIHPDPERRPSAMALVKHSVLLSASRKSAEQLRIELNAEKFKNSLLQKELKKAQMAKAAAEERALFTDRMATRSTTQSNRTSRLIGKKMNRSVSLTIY
Chain of protein kinases (human kinome) (Homo sapiens, UniProt P51451) (P51451 whole entry): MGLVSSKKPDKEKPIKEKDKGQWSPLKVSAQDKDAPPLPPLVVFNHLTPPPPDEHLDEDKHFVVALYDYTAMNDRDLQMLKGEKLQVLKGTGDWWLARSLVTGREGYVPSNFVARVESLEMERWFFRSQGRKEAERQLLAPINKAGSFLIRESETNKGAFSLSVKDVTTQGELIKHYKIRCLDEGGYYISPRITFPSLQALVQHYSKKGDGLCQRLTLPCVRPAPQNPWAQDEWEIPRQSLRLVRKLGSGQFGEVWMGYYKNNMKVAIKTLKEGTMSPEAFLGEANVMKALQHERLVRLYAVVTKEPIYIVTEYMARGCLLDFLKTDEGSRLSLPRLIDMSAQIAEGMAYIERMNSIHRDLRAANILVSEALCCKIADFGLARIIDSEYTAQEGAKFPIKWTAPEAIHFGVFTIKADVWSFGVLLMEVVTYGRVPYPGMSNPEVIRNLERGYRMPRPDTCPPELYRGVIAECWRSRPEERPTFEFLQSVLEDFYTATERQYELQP
Chain of protein kinases (human kinome) (Homo sapiens, UniProt P42684) (P42684 whole entry): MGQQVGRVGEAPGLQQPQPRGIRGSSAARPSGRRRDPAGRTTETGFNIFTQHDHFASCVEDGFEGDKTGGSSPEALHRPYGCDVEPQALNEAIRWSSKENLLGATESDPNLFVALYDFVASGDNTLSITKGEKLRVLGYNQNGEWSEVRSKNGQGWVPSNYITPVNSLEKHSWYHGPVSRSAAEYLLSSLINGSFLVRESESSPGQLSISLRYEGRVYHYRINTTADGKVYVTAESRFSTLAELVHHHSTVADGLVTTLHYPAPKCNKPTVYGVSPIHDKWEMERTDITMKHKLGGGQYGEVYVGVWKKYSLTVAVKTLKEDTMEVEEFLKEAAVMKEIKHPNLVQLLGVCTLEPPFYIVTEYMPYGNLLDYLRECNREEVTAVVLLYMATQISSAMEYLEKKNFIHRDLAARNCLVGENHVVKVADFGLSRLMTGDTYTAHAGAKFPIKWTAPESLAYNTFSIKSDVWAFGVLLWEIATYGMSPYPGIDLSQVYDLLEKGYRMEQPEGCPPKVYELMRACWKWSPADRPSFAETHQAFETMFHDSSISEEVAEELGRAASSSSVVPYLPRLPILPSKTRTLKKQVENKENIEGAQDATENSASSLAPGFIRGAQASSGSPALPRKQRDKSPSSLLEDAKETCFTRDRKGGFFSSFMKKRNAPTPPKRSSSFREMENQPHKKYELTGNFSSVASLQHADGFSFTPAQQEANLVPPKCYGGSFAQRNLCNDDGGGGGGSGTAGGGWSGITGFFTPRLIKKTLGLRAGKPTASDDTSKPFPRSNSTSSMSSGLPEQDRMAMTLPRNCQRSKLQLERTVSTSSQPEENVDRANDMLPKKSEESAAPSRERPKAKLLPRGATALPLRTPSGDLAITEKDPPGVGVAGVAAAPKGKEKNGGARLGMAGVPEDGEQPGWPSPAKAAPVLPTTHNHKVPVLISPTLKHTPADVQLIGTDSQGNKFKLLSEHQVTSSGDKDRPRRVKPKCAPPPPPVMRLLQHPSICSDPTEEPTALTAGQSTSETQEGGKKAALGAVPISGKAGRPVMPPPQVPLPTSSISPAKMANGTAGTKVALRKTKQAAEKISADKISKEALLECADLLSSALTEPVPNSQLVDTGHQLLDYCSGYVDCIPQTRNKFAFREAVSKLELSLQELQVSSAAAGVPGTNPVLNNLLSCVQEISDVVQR
Chain of protein kinases (human kinome) (Homo sapiens, UniProt P53667) (P53667 whole entry): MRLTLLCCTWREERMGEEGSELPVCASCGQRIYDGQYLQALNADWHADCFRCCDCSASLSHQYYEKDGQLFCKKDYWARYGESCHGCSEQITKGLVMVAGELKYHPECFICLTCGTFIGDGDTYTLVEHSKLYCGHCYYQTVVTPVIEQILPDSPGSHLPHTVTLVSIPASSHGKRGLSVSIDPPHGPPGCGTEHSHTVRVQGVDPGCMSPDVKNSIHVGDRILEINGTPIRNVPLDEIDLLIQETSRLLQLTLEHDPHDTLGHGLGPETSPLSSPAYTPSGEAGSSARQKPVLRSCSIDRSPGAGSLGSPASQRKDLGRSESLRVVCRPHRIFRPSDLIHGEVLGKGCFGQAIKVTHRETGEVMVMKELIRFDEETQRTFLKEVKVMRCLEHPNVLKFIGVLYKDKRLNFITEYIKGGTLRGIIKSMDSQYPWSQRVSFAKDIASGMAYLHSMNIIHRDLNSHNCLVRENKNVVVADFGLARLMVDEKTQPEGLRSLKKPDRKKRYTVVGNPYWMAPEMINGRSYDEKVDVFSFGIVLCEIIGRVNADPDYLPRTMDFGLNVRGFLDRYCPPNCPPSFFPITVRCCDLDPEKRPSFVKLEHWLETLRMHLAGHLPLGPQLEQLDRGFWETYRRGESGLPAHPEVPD
Chain of protein kinases (human kinome) (Homo sapiens, UniProt Q15118) (Q15118 29-436): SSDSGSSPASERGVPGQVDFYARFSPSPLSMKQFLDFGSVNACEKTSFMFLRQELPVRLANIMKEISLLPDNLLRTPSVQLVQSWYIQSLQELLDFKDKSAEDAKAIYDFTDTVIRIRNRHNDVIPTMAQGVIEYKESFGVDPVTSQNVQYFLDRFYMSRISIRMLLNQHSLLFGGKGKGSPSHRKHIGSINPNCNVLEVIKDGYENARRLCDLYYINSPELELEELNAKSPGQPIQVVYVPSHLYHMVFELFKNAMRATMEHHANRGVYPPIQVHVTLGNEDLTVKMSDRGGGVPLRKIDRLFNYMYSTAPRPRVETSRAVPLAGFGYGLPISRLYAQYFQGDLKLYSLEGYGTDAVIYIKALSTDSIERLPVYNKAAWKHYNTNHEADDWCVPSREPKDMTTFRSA
Chain of protein kinases (human kinome) (Homo sapiens, UniProt Q16539) (Q16539 whole entry): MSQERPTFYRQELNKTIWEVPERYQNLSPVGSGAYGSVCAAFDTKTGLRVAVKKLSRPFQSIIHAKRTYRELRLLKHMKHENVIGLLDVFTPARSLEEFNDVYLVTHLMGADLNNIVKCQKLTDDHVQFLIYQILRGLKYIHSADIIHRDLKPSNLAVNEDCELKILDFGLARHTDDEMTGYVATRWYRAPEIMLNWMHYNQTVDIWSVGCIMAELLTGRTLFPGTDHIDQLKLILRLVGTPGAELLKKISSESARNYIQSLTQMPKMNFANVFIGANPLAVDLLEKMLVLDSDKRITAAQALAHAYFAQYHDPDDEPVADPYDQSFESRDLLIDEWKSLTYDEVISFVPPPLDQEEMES

CN1c2ccccc2C(=O)Nc2cnc(Nc3ccc(N4CCN(C(=O)CCOCCNc5cccc6c5C(=O)N(C5CCC(=O)NC5=O)C6=O)CC4)cc3)nc21 (centres unmarked) [ZNL.03.127]
logFC [1]: −0.4605 | logFC STK17A [1]: −0.4605 | logFC BLK ([2]; BLK (P51451), direction down, experiment wp149): −0.5024 | logFC of BLK (P51451) ([2]; Experiment wp149): −0.5024 | logFC LIMK2 ([3]; LIMK2 (P53671), experiment wp149, down): −0.3944 | logFC of LIMK2 ([3]; experiment wp149): −0.3944 | logFC TNK2 (Q07912-3) ([4]; Experiment wp149, direction down): −0.8778 | logFC ([4]; TNK2 (Q07912-3), experiment wp149, direction down): −0.8778 | logFC LIMK1 ([5]; direction down): −0.4764 | logFC LIMK1 ([5]; down): −0.4764

Cc1ccc(NC(=O)c2cccc(C(C)(C)C#N)c2)cc1Nc1ccc2ncn(CCOCCOCCC(=O)N[C@H](C(=O)N3C[C@H](O)C[C@H]3C(=O)NCc3ccc(-c4scnc4C)cc3)C(C)(C)C)c(=O)c2c1 [DD.02.198]
logFC MAPK14 ([4]; MAPK14, accession Q16539-2, direction of change down): −0.617 | logFC MAPK14 ([4]; MAPK14 Q16539-2): −0.617 | logFC ([6]; MAPK14 (Q16539) protein abundance, degrader vs DMSO, down): −1.387 | logFC MAPK14 ([6]; MAPK14, accession Q16539, experiment wp047, direction of change down): −1.387

COc1cc(Nc2ncc3c(n2)-c2ccc(Cl)cc2C(c2c(F)cccc2OC)=NC3)ccc1C(=O)NCCCOCCOCCOCCCNC(=O)COc1cccc2c1C(=O)N(C1CCC(=O)NC1=O)C2=O (centres unmarked) [dAURK.4]
logFC AURKA (O14965) ([7]; experiment wp080): −1.055 | logFC [4, 16]: −0.3932 | logFC AURKB [4, 16]: −0.3932

COc1cc(C)c(Sc2cnc(NC(=O)c3ccc(N4CCN(CCCCCCCNC(=O)COc5cccc6c5C(=O)N(C5CCC(=O)NC5=O)C6=O)CC4)cc3)s2)cc1C(=O)N1CCN(C(C)=O)CC1 (centres unmarked) [BSJ.05.037]
logFC of LIMK2 ([3]; experiment wp134): −0.4981 | logFC ITK (Q08881) [8]: −1.816

Cc1nc(Nc2ncc(C(=O)Nc3c(C)cccc3Cl)s2)cc(N2CCN(CC(=O)NCCCCNC(=O)COc3cccc4c3C(=O)N(C3CCC(=O)NC3=O)C4=O)CC2)n1 (centres unmarked) [DB.3.291]
logFC of CSK ([9]; Accession P41240): −2.257 | logFC CSK ([9]; CSK (P41240), down): −2.257 | logFC WEE1 (P30291-1) ([10]; experiment wp045): −0.4161 | logFC of BLK ([2]; BLK P51451, experiment wp045): −0.5857 | logFC of BLK (P51451) ([2]; Experiment wp045): −0.5857 | logFC ([11]; ABL2 (P42684) protein abundance, degrader vs DMSO, down): −0.3739 | logFC ABL2 (P42684) ([11]; Experiment wp045): −0.3739

CS(=O)(=O)c1ccc(-c2cccn3nc(Nc4cccc(N5CCN(CCCCCCNC(=O)COc6cccc7c6C(=O)N(C6CCC(=O)NC6=O)C7=O)CC5)c4)nc23)cc1 (centres unmarked) [JWG.120]
logFC AAK1 ([12]; AAK1 (Q2M218-1), down): −0.3362 | logFC AAK1 ([12]; AAK1, accession Q2M218-1, direction of change down): −0.3362 | logFC AURKA (O14965) ([7]; experiment wp134): −1.562

CC(=O)c1c(C)c2cnc(Nc3ccc(N4CCN(CCCCNC(=O)COc5cccc6c5C(=O)N(C5CCC(=O)NC5=O)C6=O)CC4)cn3)nc2n(C2CCCC2)c1=O (centres unmarked) [BSJ.03.204]
logFC CDK4 (P11802) ([13]; experiment wp084): −2.162 | logFC CDK4 (P11802) ([13]; experiment wp137): −2.118 | logFC of WEE1 ([10]; experiment wp084): −0.5774 | logFC of WEE1 ([10]; experiment wp137): −0.6759 | logFC WEE1 (P30291-1) ([10]; experiment wp084): −0.5774 | logFC WEE1 (P30291-1) ([10]; experiment wp137): −0.6759 | logFC [14]: −0.3767 | logFC PDK1 [14]: −0.3767 | logFC CDK6 ([15]; experiment wp084): −3.574 | logFC CDK6 ([15]; experiment wp137): −2.866 | logFC of CDK6 (Q00534) ([15]; Experiment wp084): −3.574 | logFC of CDK6 (Q00534) ([15]; Experiment wp137): −2.866
